Inhibition data for one compound are collected here from patent US11786517B2, “Methods of treatment using a JAK inhibitor compound” (THERAVANCE BIOPHARMA R&D IP, LLC, priority 2017, dated 2023).

The experiment deals with IL-27 induced CXCL10 secretion. The experiment can be described thus: Inhibition of IL-27 induced CXCL10 in human 3D airway cultures. It is filed as cell-based. The settings on record: 192 h, at 0.1 μM (first of two values so printed), 8 days, ±STDV. As for the experimental part:
EpiAirway tissue cultures were obtained from Mattek (AIR-100). Cultures were derived from asthmatic donors. In a cell culture insert, human derived tracheal/bronchial epithelial cells were grown and differentiated on a porous membrane support, allowing an air-liquid interface with warmed culture medium below the cells and a gaseous test atmosphere above. Tissues were cultured in maintenance media (Mattek, AIR-100-MM) in a 37° C., 5% CO2 humidified incubator. Four donors were tested. On Day 0, tissue cultures were treated with test compounds at 10 μM, 1 μM and/or 0.1 μM. Compounds were diluted in dimethyl sulfoxide (DMSO, Sigma) to a final concentration of 0.1%. DMSO at 0.1% was used as a vehicle control. Test compounds were incubated with cultures for 1 hour at 37° C., 5% CO2, followed by the addition of pre-warmed media containing IFNγ (R&D Systems) or IL-27 (R&D Systems) at a final concentration at 100 ng/ml. Tissue cultures were maintained for 8 days. Media was replaced every 2 days with fresh media containing compounds and IFNγ or IL-27. On Day 8, tissue cultures and supernatants were collected for analysis. […] Data is expressed as % Inhibition+/−standard deviation (±STDV). Percent inhibition was determined by compound inhibitory potency against IFNγ or IL-27 induced CXCL10 or CXCL9 secretion compared to vehicle treated cells. […]

As for `CCc1cc(O)c(F)cc1-c1ccc2c(-c3nc4c([nH]3)CCN(C3CCN(C)CC3)C4)n[nH]c2c1` [compound 1, 5-ethyl-2-fluoro-4-(3-(5-(1-methylpiperidin-4-yl)-4,5,6,7-tetrahydro-1H-imidazo[4,5-c]pyridin-2-yl)-1H-indazol-6-yl)phenol], the inhibition (as a rule, the relative decrease from the control value, in per cent) at 0.1 µM worked out at 98%.
